Several values for one entry are separate records, joined by “and”; a condition that tells them apart may be missing. Equal values may be shown once.
Experiment: xn = mol fraction of the nth substance listed
Conditions: Liquid, Other PVT measurement, x1 = 0.2607

N [ammonia] + O
Conditions | mass density
508.07 K | 671.23 kg/m3
519.77 K | 649.65 kg/m3
545.62 K | 594.32 kg/m3
561.03 K | 552.58 kg/m3
565.36 K | 540.25 kg/m3
580.18 K | 476.26 kg/m3
584.95 K | 456.58 kg/m3
585.31 K | 120.03 kg/m3
594.14 K | 147.43 kg/m3
595.16 K | 376.89 kg/m3
597.36 K | 160.07 kg/m3
597.56 K | 342.19 kg/m3
598.33 K | 329 kg/m3
598.96 K | 320.33 kg/m3
599.42 K | 312.91 kg/m3
599.57 K | 311.19 kg/m3
599.67 K | 310.95 kg/m3
599.78 K | 308.35 kg/m3
599.89 K | 307.35 kg/m3
600.02 K | 305.44 kg/m3
600.17 K | 303.47 kg/m3
600.29 K | 301.94 kg/m3
600.48 K | 299.79 kg/m3
600.63 K | 297.6 kg/m3
600.81 K | 295.31 kg/m3
600.93 K | 292.97 kg/m3
601.05 K | 291.16 kg/m3
601.16 K | 188.05 kg/m3
601.34 K | 285.71 kg/m3
601.75 K | 195.99 kg/m3
602.05 K | 271.09 kg/m3
602.26 K | 206 kg/m3
602.45 K | 260.02 kg/m3
602.74 K | 214.83 kg/m3
602.85 K | 218.92 kg/m3
602.91 K | 243.98 kg/m3
602.96 K | 230.31 kg/m3 and 224.53 kg/m3
602.97 K | 227.54 kg/m3

From the NIST ThermoML archive (doi:10.1007/s10765-009-0602-6)
